Data published in US6225478A, “Iridoid derivatives and neovascularization inhibitors containing the same as active ingredient” (Tsumura & Co., priority 1999, dated 2001).

tested on: HUFEC; assay: Cell Migration Assay (CMA) Test, inhibitory rate with control (-) correction; type: cell-based, human; conditions: Homo sapiens, 24 h, 125 μl of 0.32 mM sample solution in 4.0 ml medium, 80% or more = remarkable
Experimental: (§1) Samples were prepared using the present compounds of Compound No. I-60 through I-315. More specifically, 32 μl of a 20 mM sample solution dissolved in dimethylsulfoxide (DMSO) were removed and brought to a volume of 1 ml with phosphate-buffered saline (PBS) to prepare a sample solution having a concentration of 0.32 mM (containing 3.2% DMSO).
After disseminating the 7th subculture of […] obtained from the first generation at 4 ml/well (3.0×10^5 cells/well) in a collagen-coated 6-well plate (NUNC), the cells were cultured for 48 hours at 37° C. in the presence of 5% CO2. The cells reached nearly a completely confluent state as a result of this culturing.
A double-edged, disposable razor blade was divided into four sections, of which one of those sections was pinched between a pair of forceps. Using this piece of razor blade, the cell surface in the above confluent state was scraped off.
After washing the surface of the wells from which the cells had been scraped off with medium, 4.0 ml of fresh M199 (2+) medium were placed in the wells. 4.0 ml of M199 medium were added to the control (-) well.
125 μl of sample solution (0.32 mM, containing 3.2% dimethylsulfoxide) were added to the wells.
125 μl of PBS solution containing 3.2% dimethylsulfoxide were added to the control wells instead of sample. The cells were cultured for 24 hours at 37° C. in the presence of 5% CO2. After discarding the culture liquid, the cells were fixed for 30 minutes with methanol. Next, after […] the cells for 4 hours with Giemsa stain, the plates were washed with tap water and air dried.
Measurement of cell migration was performed by microscopically counting the number of cells that had newly migrated within the range of a 1 mm×1 mm block. […] The total number of cells counted in blocks 1 through 5 were then totaled to determine the overall total number of cells. Four fields were counted for each well.
Evaluation was performed determining the cell migration inhibitory rate (%) according to the following equation.
Inhibitory rate=100-((number of migrating cells to which sample was added-number of migrating cells of control (-))×100/(number of migrating cells of control (+)-number of migrating cells of control (-)))
If this inhibitory rate was 80% or more, cell migration was assessed as being remarkable.

Row | SMILES | inhibition at 320 µM (stock) [%]
1 | CCN1CCN(C(=O)O[C@@H]2OC=C(C(=O)OC)[C@H]3CC=C(C)[C@@H]23)CC1 [I-95] | 9.8
2 | COC(=O)C1=CO[C@@H](OC(=O)NCC(OC)OC)[C@@H]2C(C)=CC[C@H]12 [I-96] | 5.9
3 | CCN(CCO)C(=O)O[C@@H]1OC=C(C(=O)OC)[C@H]2CC=C(C)[C@@H]12 [I-97] | 7.7
4 | COC(=O)C1=CO[C@@H](OC(=O)NCCc2ccc(OC)cc2)[C@@H]2C(C)=CC[C@H]12 [I-98] | 2.7
5 | COC(=O)C1=CO[C@@H](OC(=O)NCCc2cccc(F)c2)[C@@H]2C(C)=CC[C@H]12 [I-99] | 9.9
6 | COC(=O)C1=CO[C@@H](OC(=O)NCCc2ccc(O)cc2)[C@@H]2C(C)=CC[C@H]12 [I-100] | 21.9
7 | COC(=O)C1=CO[C@@H](OC(=O)NCCOCCO)[C@@H]2C(C)=CC[C@H]12 [I-101] | 15.7
8 | CCC(CC)NC(=O)O[C@@H]1OC=C(C(=O)OC)[C@H]2CC=C(C)[C@@H]12 [I-102] | 15.6
9 | COC(=O)C1=CO[C@@H](OC(=O)NC2CCCCCC2)[C@@H]2C(C)=CC[C@H]12 [I-103] | 5.1
10 | COC(=O)C1=CO[C@@H](OC(=O)NCCCCCO)[C@@H]2C(C)=CC[C@H]12 [I-104] | 24.1
11 | COC(=O)C1=CO[C@@H](OC(=O)NCCCN(C)C)[C@@H]2C(C)=CC[C@H]12 [I-105] | 14.9
12 | COC(=O)C1=CO[C@@H](OC(=O)NCc2ccc(OC(F)(F)F)cc2)[C@@H]2C(C)=CC[C@H]12 [I-106] | 6.7
13 | COC(=O)C1=CO[C@@H](OC(=O)NCCc2ccc(F)cc2)[C@@H]2C(C)=CC[C@H]12 [I-107] | 31.2
14 | COC(=O)C1=CO[C@@H](OC(=O)NCc2ccc(F)cc2)[C@@H]2C(C)=CC[C@H]12 [I-108] | 11.7
15 | COC(=O)C1=CO[C@@H](OC(=O)NCc2ccc(Cl)cc2)[C@@H]2C(C)=CC[C@H]12 [I-109] | 21.5
16 | COC(=O)C1=CO[C@@H](OC(=O)NCc2ccco2)[C@@H]2C(C)=CC[C@H]12 [I-110] | 7.8
17 | COC(=O)C1=CO[C@@H](OC(=O)N2CCCCC2)[C@@H]2C(C)=CC[C@H]12 [I-111] | 9.4
18 | COC(=O)C1=CO[C@@H](OC(=O)NCCCc2ccccc2)[C@@H]2C(C)=CC[C@H]12 [I-112] | 6.8
19 | COC(=O)C1=CO[C@@H](OC(=O)NC2CC2)[C@@H]2C(C)=CC[C@H]12 [I-113] | 34.4
20 | COC(=O)C1=CO[C@@H](OC(=O)N2CCSCC2)[C@@H]2C(C)=CC[C@H]12 [I-114] | 9.4

tested on: human umbilical-vein endothelial cells (HUVEC); assay: Tube Formation Assay (TFA) Test, HUVEC in collagen gel; type: cell-based; conditions: Homo sapiens, HUVEC, Tables 75-83; 0.32 mM sample solution; method as for Compounds 1 through 60; read-out: TFA Inhibition rate (%)
Experimental: Furthermore, the sample liquids of compounds used in the CPA and CMA tests were prepared in the manner described below. Firstly, after weighing out each compound, a calculated amount of DMSO was added. After dissolving the compound in the DMSO, phosphate buffered physiological saline (PBS (-)) was added to bring the sample concentration to 1 mg/ml in PBS (-). The amount of DMSO used to dissolve the compounds was adjusted in advance to that the concentration of DMSO at that time was 5%. The resulting liquids were diluted 10-fold with 5% DMSO-PBS (-) solution to prepare sample solutions having a concentration of 0.1 mg/ml. In the TFA test, 320 μl of the prepared 1 mg/ml sample solutions were removed followed by addition of 680 μl of PBS (-) to prepare samples having a concentration of […]. Moreover, 100 μl of this solution was removed followed by addition of 900 μl of PBS (-) to dilute 10-fold and prepare samples having a concentration of 1 μg/ml. P [Cell Proliferation Assay (CPA) Test]
To begin with, 8 volumes of Type 1-A cell matrix (manufactured by Gibco Co.), 1 volume of 10×M119, and 1 volume of reconstituted buffer [200 mM HEPES, 0.05 N sodium hydroxide, 260 mM sodium bicarbonate] were slowly mixed under cooling with ice while avoiding bubbling to form a collagen gel. This collagen gel was distributed in a NUNC 24-well plate at 310 μl/well followed by allowing to stand undisturbed for 2 hours at 37° C. to solidify the gel.
Next, the 7th subculture of HUVEC (1×10^5 cells/ml) obtained from the first generation in the same manner as above were disseminated at 500 μl/well. The cells were cultured for 2 hours at 37° C. to allow the cells to make contact with the collagen. After then removing the medium by aspiration, 50 μl of sample solution were added followed by addition of 310 μl/well of freshly prepared collagen gel and culturing for 1 hour and 10 minutes at 37° C. to solidify the double-layer gel.
1 ml/well of M-199 medium containing 20% FCS, 30 ng /ml of b-FGF and 0.1 μM PMA were added to the wells followed by culturing for 20 hours at 37° C. in the presence of 5% CO2.
Measurement of the lengths of the formed tubes was performed using the public domain NIH Image with a computer.
Evaluation was performed by calculating the inhibition rate (%) of tube formation according to the following formula.
Inhibition rate (%)=100-((formed tube length in presence of sample-formed tube length in presence of control (-))×100/(formed tube length in presence of control (+)-formed tube length in presence of control (-)))
as §1
The testing method used for these compounds was the same as that used for the compounds of Compound No. 1 through 60 previously described.

Row | SMILES | inhibition at 320 µM (stock) [%]
21 | CCN1CCN(C(=O)O[C@@H]2OC=C(C(=O)OC)[C@H]3CC=C(C)[C@@H]23)CC1 [I-95] | 4.5
22 | COC(=O)C1=CO[C@@H](OC(=O)NCC(OC)OC)[C@@H]2C(C)=CC[C@H]12 [I-96] | 19.7
23 | CCN(CCO)C(=O)O[C@@H]1OC=C(C(=O)OC)[C@H]2CC=C(C)[C@@H]12 [I-97] | 29.1
24 | COC(=O)C1=CO[C@@H](OC(=O)NCCc2ccc(OC)cc2)[C@@H]2C(C)=CC[C@H]12 [I-98] | 3.8
25 | COC(=O)C1=CO[C@@H](OC(=O)NCCc2cccc(F)c2)[C@@H]2C(C)=CC[C@H]12 [I-99] | 8.6
26 | COC(=O)C1=CO[C@@H](OC(=O)NCCc2ccc(O)cc2)[C@@H]2C(C)=CC[C@H]12 [I-100] | 23.3
27 | COC(=O)C1=CO[C@@H](OC(=O)NCCOCCO)[C@@H]2C(C)=CC[C@H]12 [I-101] | 6.3
28 | CCC(CC)NC(=O)O[C@@H]1OC=C(C(=O)OC)[C@H]2CC=C(C)[C@@H]12 [I-102] | 8.2
29 | COC(=O)C1=CO[C@@H](OC(=O)NC2CCCCCC2)[C@@H]2C(C)=CC[C@H]12 [I-103] | 8.3
30 | COC(=O)C1=CO[C@@H](OC(=O)NCCCCCO)[C@@H]2C(C)=CC[C@H]12 [I-104] | 3.8
31 | COC(=O)C1=CO[C@@H](OC(=O)NCCCN(C)C)[C@@H]2C(C)=CC[C@H]12 [I-105] | 5.6
32 | COC(=O)C1=CO[C@@H](OC(=O)NCc2ccc(OC(F)(F)F)cc2)[C@@H]2C(C)=CC[C@H]12 [I-106] | 26.8
33 | COC(=O)C1=CO[C@@H](OC(=O)NCCc2ccc(F)cc2)[C@@H]2C(C)=CC[C@H]12 [I-107] | 4.4
34 | COC(=O)C1=CO[C@@H](OC(=O)NCc2ccc(F)cc2)[C@@H]2C(C)=CC[C@H]12 [I-108] | 3
35 | COC(=O)C1=CO[C@@H](OC(=O)NCc2ccc(Cl)cc2)[C@@H]2C(C)=CC[C@H]12 [I-109] | 7.2
36 | COC(=O)C1=CO[C@@H](OC(=O)NCc2ccco2)[C@@H]2C(C)=CC[C@H]12 [I-110] | 4.6
37 | COC(=O)C1=CO[C@@H](OC(=O)N2CCCCC2)[C@@H]2C(C)=CC[C@H]12 [I-111] | 2.9
38 | COC(=O)C1=CO[C@@H](OC(=O)NCCCc2ccccc2)[C@@H]2C(C)=CC[C@H]12 [I-112] | 7.9
39 | COC(=O)C1=CO[C@@H](OC(=O)NC2CC2)[C@@H]2C(C)=CC[C@H]12 [I-113] | 7.9
40 | COC(=O)C1=CO[C@@H](OC(=O)N2CCSCC2)[C@@H]2C(C)=CC[C@H]12 [I-114] | 6.8
